{"source": "BindingDB's records for doi:10.1021/np030086k", "about": "(University of Mississippi, 2003)", "data": [{"test": "Inhibition of LFA1:CD11a/CD18/ICAM1-mediated human HL60 cell adhesion to human HeLa cells expressing ICAM1 by fluorescence analysis", "units": {"IC50": "µM"}, "values": [{"smiles": "CC[C@H]1CN2CCc3cc(OC)c(OC)cc3[C@@H]2C[C@@H]1C[C@H]1NCCc2cc(O)c(OC)cc21", "note": "[CHEBI:3533]", "IC50": "> 21.4"}, {"smiles": "CC[C@H]1CN2CCc3cc(OC)c(OC)cc3[C@@H]2C[C@@H]1C[C@H]1NCCc2cc(OC)c(OC)cc21", "note": "[6',7',10,11-tetramethoxyemetan]", "IC50": "> 104"}, {"smiles": "C=C1[C@@H](C)[C@H]2[C@H](Cc3ccccc3)NC(=O)[C@]23OC(=O)/C=C/[C@H](O)CCC[C@@H](C)C/C=C/[C@H]3[C@@H]1O", "note": "[CHEBI:23527]", "IC50": 11.4}]}]}
